From article PMC5540273, “Progress towards a public chemogenomic set for protein kinases and a call for contributions” (PLoS ONE, 2017)

Legend:
Experiment in all cases: KINOMEscan competition binding
[1] = target: DMPK2 (Homo sapiens, UniProt Q6DT37); details: read-out: %Inh DMPK2
[2] = target: EGFR (Homo sapiens, UniProt P00533); details: read-out: %Inh EGFR
[3] = target: T1, EPHB4 (Homo sapiens, UniProt P54760); details: read-out: %Inh EPHB4
T1 sequence (P54760 16-987): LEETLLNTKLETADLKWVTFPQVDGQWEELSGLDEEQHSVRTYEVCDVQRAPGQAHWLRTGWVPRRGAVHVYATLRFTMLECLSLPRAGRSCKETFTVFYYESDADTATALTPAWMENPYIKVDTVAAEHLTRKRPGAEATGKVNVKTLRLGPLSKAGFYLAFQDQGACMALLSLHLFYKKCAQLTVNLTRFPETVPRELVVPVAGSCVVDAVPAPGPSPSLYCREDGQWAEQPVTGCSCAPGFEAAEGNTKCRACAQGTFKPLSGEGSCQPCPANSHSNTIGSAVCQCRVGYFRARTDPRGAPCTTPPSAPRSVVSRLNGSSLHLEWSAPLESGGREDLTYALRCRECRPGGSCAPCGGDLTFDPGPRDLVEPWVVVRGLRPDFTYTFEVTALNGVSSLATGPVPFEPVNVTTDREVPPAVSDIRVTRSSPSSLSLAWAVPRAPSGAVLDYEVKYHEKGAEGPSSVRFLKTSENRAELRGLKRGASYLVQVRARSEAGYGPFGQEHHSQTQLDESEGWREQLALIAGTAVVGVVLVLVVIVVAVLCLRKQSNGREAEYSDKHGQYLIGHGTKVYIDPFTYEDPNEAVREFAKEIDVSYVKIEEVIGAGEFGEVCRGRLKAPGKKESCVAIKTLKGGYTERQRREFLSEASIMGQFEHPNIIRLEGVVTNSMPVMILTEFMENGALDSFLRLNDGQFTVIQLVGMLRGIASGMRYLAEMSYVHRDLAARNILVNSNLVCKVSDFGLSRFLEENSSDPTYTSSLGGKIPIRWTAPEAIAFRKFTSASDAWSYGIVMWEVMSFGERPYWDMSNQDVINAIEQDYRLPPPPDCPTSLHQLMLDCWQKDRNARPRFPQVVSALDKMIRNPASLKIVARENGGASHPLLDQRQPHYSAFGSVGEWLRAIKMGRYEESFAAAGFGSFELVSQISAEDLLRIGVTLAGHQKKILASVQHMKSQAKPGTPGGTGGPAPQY

[4] = target: FES (Homo sapiens, UniProt P07332); details: read-out: %Inh FES
Sequence of FES (P07332 whole entry): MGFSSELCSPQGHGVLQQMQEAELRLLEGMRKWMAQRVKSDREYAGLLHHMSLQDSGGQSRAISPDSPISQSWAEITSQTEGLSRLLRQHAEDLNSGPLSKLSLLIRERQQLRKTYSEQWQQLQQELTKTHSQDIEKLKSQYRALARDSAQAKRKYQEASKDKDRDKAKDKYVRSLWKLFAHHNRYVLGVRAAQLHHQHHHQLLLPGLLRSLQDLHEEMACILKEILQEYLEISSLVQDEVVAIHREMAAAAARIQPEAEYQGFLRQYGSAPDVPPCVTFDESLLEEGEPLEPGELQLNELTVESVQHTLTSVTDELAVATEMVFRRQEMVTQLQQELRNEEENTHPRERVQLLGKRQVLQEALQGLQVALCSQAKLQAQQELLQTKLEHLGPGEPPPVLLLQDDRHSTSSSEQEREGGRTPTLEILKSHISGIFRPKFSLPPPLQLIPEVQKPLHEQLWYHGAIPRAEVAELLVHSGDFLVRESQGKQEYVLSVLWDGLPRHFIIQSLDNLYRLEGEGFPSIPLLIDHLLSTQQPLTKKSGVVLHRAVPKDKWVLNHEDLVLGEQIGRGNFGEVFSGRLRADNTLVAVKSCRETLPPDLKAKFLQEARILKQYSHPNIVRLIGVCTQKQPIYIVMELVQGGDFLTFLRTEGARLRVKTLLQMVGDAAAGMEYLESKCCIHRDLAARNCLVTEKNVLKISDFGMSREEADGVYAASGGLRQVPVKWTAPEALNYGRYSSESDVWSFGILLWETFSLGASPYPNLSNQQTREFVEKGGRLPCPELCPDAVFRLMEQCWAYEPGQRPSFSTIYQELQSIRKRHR

[5] = target: ERN1 (Homo sapiens, UniProt O75460); details: read-out: %Inh ERN1
[6] = target: JNK1 (Homo sapiens, UniProt P45983); details: read-out: %Inh JNK1
Sequence of JNK1 (P45983 whole entry): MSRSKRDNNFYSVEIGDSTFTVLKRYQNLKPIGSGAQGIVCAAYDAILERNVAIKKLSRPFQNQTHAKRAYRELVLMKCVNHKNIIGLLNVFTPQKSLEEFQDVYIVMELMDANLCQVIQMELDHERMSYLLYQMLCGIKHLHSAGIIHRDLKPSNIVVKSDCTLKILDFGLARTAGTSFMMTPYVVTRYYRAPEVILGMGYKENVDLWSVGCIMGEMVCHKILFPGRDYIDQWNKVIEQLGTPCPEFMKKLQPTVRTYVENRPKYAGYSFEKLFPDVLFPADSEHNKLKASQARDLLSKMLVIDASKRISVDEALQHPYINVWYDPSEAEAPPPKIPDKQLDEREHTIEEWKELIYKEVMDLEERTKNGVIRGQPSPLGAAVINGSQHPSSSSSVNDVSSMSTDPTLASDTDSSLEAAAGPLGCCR

[7] = target: LYN (Homo sapiens, UniProt P07948); details: read-out: %Inh LYN
Sequence of LYN (P07948 whole entry): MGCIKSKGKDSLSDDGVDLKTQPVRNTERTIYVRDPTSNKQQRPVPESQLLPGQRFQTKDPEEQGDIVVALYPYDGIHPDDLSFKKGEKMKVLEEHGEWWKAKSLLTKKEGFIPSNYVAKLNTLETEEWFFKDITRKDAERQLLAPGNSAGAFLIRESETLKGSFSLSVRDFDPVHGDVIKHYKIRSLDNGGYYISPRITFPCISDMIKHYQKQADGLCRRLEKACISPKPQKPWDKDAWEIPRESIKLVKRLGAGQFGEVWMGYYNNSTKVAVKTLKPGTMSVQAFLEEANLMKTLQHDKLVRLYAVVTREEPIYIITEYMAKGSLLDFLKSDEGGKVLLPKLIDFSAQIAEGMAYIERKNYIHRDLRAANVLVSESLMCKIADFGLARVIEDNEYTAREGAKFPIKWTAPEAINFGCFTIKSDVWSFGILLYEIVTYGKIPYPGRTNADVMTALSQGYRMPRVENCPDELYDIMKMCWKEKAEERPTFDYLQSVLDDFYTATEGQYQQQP

[8] = target: T2, CDC2L2 (Homo sapiens, UniProt Q9UQ88); details: read-out: %Inh CDC2L2
T2 sequence (Q9UQ88 1-783): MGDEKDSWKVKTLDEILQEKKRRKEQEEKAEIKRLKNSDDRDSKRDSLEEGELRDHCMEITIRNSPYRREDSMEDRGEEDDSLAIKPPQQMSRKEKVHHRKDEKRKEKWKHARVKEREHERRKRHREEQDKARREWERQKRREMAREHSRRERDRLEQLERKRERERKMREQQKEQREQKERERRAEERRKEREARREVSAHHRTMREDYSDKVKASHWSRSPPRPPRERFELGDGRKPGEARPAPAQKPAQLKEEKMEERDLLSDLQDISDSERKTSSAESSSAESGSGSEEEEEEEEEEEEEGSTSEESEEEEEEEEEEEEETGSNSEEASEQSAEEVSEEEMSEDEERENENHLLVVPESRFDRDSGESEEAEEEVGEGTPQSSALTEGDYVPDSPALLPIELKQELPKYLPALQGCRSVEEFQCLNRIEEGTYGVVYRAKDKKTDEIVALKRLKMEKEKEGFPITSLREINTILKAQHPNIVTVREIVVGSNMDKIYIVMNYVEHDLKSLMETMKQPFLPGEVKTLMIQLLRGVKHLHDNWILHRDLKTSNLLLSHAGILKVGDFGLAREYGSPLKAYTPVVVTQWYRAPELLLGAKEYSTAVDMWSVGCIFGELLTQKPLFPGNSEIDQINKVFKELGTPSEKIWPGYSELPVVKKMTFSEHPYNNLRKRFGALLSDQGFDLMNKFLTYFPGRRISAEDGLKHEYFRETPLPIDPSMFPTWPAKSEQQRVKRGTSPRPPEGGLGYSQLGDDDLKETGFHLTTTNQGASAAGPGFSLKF

[9] = target: T3, DCAMKL3 (Homo sapiens, UniProt Q9C098); details: read-out: %Inh DCAMKL3
T3 sequence (Q9C098 1-648): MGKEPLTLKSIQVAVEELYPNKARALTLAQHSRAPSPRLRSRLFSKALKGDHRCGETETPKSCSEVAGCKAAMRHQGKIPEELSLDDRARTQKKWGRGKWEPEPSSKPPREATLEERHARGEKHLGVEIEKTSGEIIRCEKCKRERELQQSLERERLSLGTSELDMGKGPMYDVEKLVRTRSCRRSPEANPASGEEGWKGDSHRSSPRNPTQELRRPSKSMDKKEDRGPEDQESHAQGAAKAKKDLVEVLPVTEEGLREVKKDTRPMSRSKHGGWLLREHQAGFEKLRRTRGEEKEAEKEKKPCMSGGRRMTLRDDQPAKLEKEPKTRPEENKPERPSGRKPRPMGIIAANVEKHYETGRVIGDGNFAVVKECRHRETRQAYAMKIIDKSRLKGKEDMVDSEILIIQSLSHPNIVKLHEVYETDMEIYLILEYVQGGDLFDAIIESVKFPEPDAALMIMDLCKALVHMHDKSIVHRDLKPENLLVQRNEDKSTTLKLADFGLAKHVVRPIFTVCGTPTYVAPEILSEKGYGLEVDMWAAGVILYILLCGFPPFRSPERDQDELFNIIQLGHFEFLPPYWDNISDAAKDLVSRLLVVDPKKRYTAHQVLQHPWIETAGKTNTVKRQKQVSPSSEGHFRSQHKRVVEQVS

[10] = target: FGR (Homo sapiens, UniProt P09769); details: read-out: %Inh FGR
Sequence of FGR (P09769 whole entry): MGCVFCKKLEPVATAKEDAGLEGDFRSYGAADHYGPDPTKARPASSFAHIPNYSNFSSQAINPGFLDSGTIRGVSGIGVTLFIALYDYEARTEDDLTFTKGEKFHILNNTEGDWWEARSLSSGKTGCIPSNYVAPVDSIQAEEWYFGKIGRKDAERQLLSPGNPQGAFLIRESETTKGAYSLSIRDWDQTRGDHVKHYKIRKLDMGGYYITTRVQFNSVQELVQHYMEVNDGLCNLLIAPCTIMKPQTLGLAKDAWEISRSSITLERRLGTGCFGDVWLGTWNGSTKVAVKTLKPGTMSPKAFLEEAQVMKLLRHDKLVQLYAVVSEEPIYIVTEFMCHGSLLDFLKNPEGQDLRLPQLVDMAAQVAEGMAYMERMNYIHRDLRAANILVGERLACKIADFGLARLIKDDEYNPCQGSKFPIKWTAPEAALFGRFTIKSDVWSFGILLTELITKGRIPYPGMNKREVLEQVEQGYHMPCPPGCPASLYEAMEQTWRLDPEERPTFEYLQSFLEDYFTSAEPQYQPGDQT

Sequence of DMPK2 (Q6DT37 whole entry): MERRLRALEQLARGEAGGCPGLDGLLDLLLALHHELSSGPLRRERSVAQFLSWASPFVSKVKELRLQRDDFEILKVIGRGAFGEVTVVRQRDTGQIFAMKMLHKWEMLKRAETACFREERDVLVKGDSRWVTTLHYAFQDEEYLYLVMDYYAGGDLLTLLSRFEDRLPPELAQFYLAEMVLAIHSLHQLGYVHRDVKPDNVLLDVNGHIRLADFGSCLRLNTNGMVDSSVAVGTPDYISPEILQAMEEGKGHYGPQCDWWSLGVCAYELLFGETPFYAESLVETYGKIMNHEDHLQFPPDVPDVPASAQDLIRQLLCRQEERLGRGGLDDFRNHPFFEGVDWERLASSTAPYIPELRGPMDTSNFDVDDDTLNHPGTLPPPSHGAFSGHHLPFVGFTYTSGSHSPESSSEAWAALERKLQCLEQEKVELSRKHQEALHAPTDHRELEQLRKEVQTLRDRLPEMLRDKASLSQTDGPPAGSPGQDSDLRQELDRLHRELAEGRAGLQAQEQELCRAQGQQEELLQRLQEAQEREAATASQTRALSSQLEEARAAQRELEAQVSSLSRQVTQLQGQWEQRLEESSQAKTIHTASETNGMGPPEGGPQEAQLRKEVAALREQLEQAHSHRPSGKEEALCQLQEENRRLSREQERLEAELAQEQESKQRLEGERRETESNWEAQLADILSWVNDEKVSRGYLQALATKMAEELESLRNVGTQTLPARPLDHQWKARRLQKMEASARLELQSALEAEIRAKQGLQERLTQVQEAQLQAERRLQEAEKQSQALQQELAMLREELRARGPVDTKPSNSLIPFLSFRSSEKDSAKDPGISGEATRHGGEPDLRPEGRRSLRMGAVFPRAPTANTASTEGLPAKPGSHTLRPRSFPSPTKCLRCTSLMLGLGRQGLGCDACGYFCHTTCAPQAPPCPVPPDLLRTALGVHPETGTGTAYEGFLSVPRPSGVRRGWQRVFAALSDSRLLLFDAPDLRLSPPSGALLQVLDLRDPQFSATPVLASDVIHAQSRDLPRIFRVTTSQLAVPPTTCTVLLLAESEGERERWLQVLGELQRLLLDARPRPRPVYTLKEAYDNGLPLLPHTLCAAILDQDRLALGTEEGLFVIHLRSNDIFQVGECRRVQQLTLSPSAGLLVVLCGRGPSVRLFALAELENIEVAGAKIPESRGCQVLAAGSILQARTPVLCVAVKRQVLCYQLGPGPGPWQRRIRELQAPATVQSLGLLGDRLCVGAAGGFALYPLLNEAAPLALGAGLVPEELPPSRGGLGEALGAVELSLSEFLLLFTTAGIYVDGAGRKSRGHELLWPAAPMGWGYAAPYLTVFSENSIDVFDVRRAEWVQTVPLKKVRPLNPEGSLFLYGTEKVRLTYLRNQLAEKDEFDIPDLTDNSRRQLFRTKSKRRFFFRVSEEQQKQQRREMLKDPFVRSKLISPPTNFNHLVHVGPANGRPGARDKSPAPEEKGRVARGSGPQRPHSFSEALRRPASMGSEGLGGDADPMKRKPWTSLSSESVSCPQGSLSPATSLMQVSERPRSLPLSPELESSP
Sequence of EGFR (P00533 25-1210): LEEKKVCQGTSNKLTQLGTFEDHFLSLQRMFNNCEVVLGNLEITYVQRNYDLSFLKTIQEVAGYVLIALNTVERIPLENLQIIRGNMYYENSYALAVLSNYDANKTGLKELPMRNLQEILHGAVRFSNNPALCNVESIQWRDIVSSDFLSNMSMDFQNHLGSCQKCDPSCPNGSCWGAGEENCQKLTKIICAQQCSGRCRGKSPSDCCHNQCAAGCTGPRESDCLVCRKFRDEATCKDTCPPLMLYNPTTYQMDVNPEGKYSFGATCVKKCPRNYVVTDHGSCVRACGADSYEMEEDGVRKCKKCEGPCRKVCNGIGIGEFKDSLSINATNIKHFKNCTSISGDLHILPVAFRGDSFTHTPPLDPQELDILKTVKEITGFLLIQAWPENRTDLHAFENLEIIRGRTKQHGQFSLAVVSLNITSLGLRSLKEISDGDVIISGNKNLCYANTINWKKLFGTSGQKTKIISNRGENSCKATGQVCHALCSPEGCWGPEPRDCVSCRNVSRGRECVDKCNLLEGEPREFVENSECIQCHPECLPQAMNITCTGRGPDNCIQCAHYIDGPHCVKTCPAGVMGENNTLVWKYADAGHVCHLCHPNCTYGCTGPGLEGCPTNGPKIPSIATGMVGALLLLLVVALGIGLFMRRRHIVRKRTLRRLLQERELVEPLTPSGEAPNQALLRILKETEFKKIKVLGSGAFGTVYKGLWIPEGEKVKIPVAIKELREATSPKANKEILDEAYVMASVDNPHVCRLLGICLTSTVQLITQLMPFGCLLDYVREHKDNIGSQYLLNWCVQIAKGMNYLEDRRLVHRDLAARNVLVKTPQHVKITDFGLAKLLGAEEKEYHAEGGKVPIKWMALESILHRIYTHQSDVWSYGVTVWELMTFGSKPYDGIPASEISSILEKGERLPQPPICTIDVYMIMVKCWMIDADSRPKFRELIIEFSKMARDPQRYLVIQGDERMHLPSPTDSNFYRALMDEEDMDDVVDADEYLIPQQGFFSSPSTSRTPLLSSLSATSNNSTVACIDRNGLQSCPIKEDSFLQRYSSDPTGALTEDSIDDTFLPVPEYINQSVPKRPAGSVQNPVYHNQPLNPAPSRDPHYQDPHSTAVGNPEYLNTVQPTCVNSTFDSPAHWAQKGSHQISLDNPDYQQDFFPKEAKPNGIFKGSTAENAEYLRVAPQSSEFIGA

| SMILES | inhibition at 1 µM [1] | inhibition at 1 µM [2] | inhibition at 1 µM [3] | inhibition at 1 µM [4] | inhibition at 1 µM [5] | inhibition at 1 µM [6] | inhibition at 1 µM [7] | inhibition at 1 µM [8] | inhibition at 1 µM [9] | inhibition at 1 µM [10] |
| --- | --- | --- | --- | --- | --- | --- | --- | --- | --- | --- |
| Cn1cc(-c2cnc(N)c3c(-c4ccc5c(c4)CCN5C(=O)Cc4ccccc4)csc23)cn1 [UNC10225012A] | 81% | 3% | 9% | 14% | 28% | 13% | 65% | 1% | 5% | 75% |
| O=c1cc(N2CCOCC2)nc2n(Cc3cccc(Cl)c3Cl)c(C3CC3)nn12 [UNC10225469A] | 0% | 0% | 3% | 15% | 0% | 19% | 0% | 0% | 17% | 9% |
| COc1cccc(OC)c1C(=O)Nc1cccc(-c2nn3ccccc3c2-c2ccnc(Nc3cccc(F)c3)n2)c1 [UNC10225310A] | 84% | 91.7% | 8% | 20% | 10% | 44% | 8% | 0% | 16% | 23% |
| CS(=O)(=O)Cc1ccc(Nc2nccc(-c3c(-c4cccc(NC(=O)C5CCCCC5)c4)nn4ncccc34)n2)cc1 [UNC10225159A] | 35% | 68% | 0% | 0% | 33% | 43% | 16% | 27% | 0% | 27% |
| Cc1ccc(NC(=O)Nc2cccc(C(F)(F)F)c2)cc1 [UNC10225187A] | 0% | 0% | 0% | 0% | 0% | 58% | 0% | 0% | 13% | 0% |
